Molecular target: T1, fungal tyrosinase
T1 construct: gene PPO3; only 'fungal' printed
Test: L-DOPA oxidation, […] nm
Type: biochemical
Details: L-DOPA substrate, pH 6.8, room temperature

Tyrosinase / IC50: 23.80 ± 0.25 µg/mL
SMILES: O=c1cc(CO)occ1O [Kojic acid]

— publication PMC12698445, “Phenolic profile of different solvent extracts of Reseda alba L. and evaluation of anti-quorum sensing, antioxidant, and enzyme inhibition activities” (Frontiers in Nutrition, 2025)
